{
  "source": "patent US20200368312A1",
  "about": "(priority 2017, published 2020)",
  "key": {"Streptococci": {"tested_on": "Streptococci", "experiment": "Broth microdilution MIC, Streptococci (Example 11, Table 7)", "format": "cell-based"}, "Clostridium difficile": {"tested_on": "Clostridium difficile", "experiment": "Broth microdilution MIC, C. difficile, anaerobic, supplemented Brucella Broth (Example 11, Table 7)", "format": "cell-based"}, "S. haemolyticus (CoNS)": {"tested_on": "S. haemolyticus (CoNS)", "experiment": "Broth microdilution MIC, S. haemolyticus (CoNS) (Table 7)", "format": "cell-based", "conditions": "S. haemolyticus (CoNS) MMX 529 ATCC 29970"}, "P. acnes": {"tested_on": "P. acnes", "experiment": "Broth microdilution MIC, P. acnes (Table 7)", "format": "cell-based"}, "[1]": {"tested_on": "quality control strain ATCC 29213 (MSSA)", "experiment": "MIC, CLSI-guided broth susceptibility testing (Example 10)", "format": "cell-based, Staphylococcus aureus", "experimental": "(§1) MIC Testing: Glycopeptide compounds were dissolved in 100% DMSO. In vitro activities were determined using CLSI-guided broth susceptibility testing to measure drug minimum inhibitory concentrations (MICs) of the compounds against the quality control strain ATCC 29213 (MSSA) and the MRSA isolate ATCC BAA-1556. Glycopeptides are defined as compounds of Formula (I), and their respective R^1, R^2, R^3 and R^4 groups. X is —O— for each compound in Table 2."}, "[2]": {"tested_on": "MRSA isolate ATCC BAA-1556", "experiment": "MIC, CLSI-guided broth susceptibility testing (Example 10)", "format": "cell-based, Staphylococcus aureus", "experimental": "as §1"}, "P. anaerobius": {"tested_on": "P. anaerobius", "experiment": "Broth microdilution MIC, P. anaerobius (Table 7)", "format": "cell-based", "conditions": "P. anaerobius MMX 1208 ATCC 27337"}, "S. hominis (CoNS)": {"tested_on": "S. hominis (CoNS)", "experiment": "Broth microdilution MIC, S. hominis (CoNS) (Table 7)", "format": "cell-based", "conditions": "S. hominis (CoNS) MMX 667 ATCC 27844"}, "Staphylococcus aureus": {"tested_on": "Staphylococcus aureus", "experiment": "microbe, parasite or virus in culture", "format": "cell-based"}, "S. lugdenensis (CoNS)": {"tested_on": "S. lugdenensis (CoNS)", "experiment": "Broth microdilution MIC, S. lugdenensis (CoNS) (Table 7)", "format": "cell-based", "conditions": "S. lugdenensis (CoNS) MMX 8724"}, "P. micros": {"tested_on": "P. micros", "experiment": "Broth microdilution MIC, P. micros (Table 7)", "format": "cell-based", "conditions": "P. micros MMX 3546"}, "S. epidermidis (CoNS)": {"tested_on": "S. epidermidis (CoNS)", "experiment": "Broth microdilution MIC, S. epidermidis (CoNS) (Table 7)", "format": "cell-based"}, "Enterococci": {"tested_on": "Enterococci", "format": "cell-based"}, "C. perfringens": {"tested_on": "C. perfringens", "format": "cell-based", "conditions": "C. perfringens MMX 8351 ATCC 13124"}},
  "note": "Read-outs that look alike come from different tables or passages of the source.",
  "data": [
    {"compound": "CCCCCCCCCCNCCN[C@@]1(C)C[C@H](O[C@H]2[C@H](Oc3c4cc5cc3Oc3ccc(cc3Cl)[C@@H](O)[C@@H](NC(=O)[C@@H](CC(C)C)NC)C(=O)N[C@@H](CC(N)=O)C(=O)N[C@H]5C(=O)N[C@H]3C(=O)N[C@H](C(=O)N[C@H](C(=O)O)c5cc(O)c(CNCP(=O)(O)O)c(O)c5-c5cc3ccc5O)[C@H](O)c3ccc(c(Cl)c3)O4)O[C@H](CO)[C@@H](O)[C@@H]2O)O[C@@H](C)[C@H]1O", "note": "[Telavancin]", "values": [
      {"measurement": "MIC", "setting": "Streptococci; S. agalactiae MMX 427 ATCC 13813", "result": 0.06, "unit": "µg/mL"},
      {"measurement": "MIC", "setting": "Streptococci; S. agalactiae MMX 4088", "result": 0.06, "unit": "µg/mL"},
      {"measurement": "MIC", "setting": "Streptococci; S. agalactiae MMX 4115, erm^R", "result": 0.06, "unit": "µg/mL"},
      {"measurement": "MIC", "setting": "Streptococci; S. anginosus (AGS) MMX 1201 ATCC 33397", "result": 0.06, "unit": "µg/mL"},
      {"measurement": "MIC", "setting": "Streptococci; S. constellatus (AGS) MMX 5677", "result": 0.03, "unit": "µg/mL"},
      {"measurement": "MIC", "setting": "Streptococci; S. dysgalactiae MMX 5121", "result": 0.12, "unit": "µg/mL"},
      {"measurement": "MIC", "setting": "Streptococci; S. dysgalactiae MMX 5123", "result": 0.25, "unit": "µg/mL"},
      {"measurement": "MIC", "setting": "Streptococci; S. dysgalactiae MMX 5124", "result": 0.03, "unit": "µg/mL"},
      {"measurement": "MIC", "setting": "Streptococci; S. mitis (MGS) MMX 1205 ATCC 49456", "result": 0.06, "unit": "µg/mL"},
      {"measurement": "MIC", "setting": "Streptococci; S. oralis (MGS) MMX 5821", "result": 0.06, "unit": "µg/mL"},
      {"measurement": "MIC", "setting": "Streptococci; S. pneumoniae MMX 432, PRSP", "result": 0.03, "unit": "µg/mL"},
      {"measurement": "MIC", "setting": "Streptococci; S. pneumoniae MMX 747", "result": 0.015, "unit": "µg/mL"},
      {"measurement": "MIC", "setting": "Streptococci; S. pneumoniae MMX 1195 ATCC 49619, PISP", "result": 0.03, "unit": "µg/mL"},
      {"measurement": "MIC", "setting": "Streptococci; S. pyogenes MMX 404 ATCC 19615", "result": 0.06, "unit": "µg/mL"},
      {"measurement": "MIC", "setting": "Streptococci; S. pyogenes MMX 946, ermR", "result": 0.06, "unit": "µg/mL"},
      {"measurement": "MIC", "setting": "Streptococci; S. pyogenes MMX 8778", "result": 0.06, "unit": "µg/mL"},
      {"measurement": "MIC", "setting": "Clostridium difficile; C. difficile MMX 4381 ATCC 700057, toxinAB-negative", "result": 0.12, "unit": "µg/mL"},
      {"measurement": "MIC", "setting": "Clostridium difficile; C. difficile MMX 4994 ATCC BAA-1805, ribotype 027", "result": 0.12, "unit": "µg/mL"},
      {"measurement": "MIC", "setting": "Clostridium difficile; C. difficile MMX 5668 ATCC BAA-1870, NAP1/027", "result": 0.12, "unit": "µg/mL"},
      {"measurement": "MIC", "setting": "S. haemolyticus (CoNS)", "result": 0.06, "unit": "µg/mL"},
      {"measurement": "MIC", "setting": "P. acnes; P. acnes MMX 7942 ATCC 6919", "result": 0.03, "unit": "µg/mL"},
      {"measurement": "MIC", "setting": "P. acnes; P. acnes MMX 7946 ATCC 11827", "result": 0.015, "unit": "µg/mL"},
      {"measurement": "MIC Values MSSA 29213", "setting": "[1]", "result": 0.063, "unit": "µg/mL"},
      {"measurement": "MIC Values MRSA 1556", "setting": "[2]", "result": 0.063, "unit": "µg/mL"},
      {"measurement": "MIC", "setting": "P. anaerobius", "result": 0.03, "unit": "µg/mL"},
      {"measurement": "MIC", "setting": "S. hominis (CoNS)", "result": 0.06, "unit": "µg/mL"},
      {"measurement": "RV40 activity as compared to Comparator", "setting": "Staphylococcus aureus; MRSA strains (Table 5), […]", "result": 6, "unit": "×"},
      {"measurement": "MIC", "setting": "Staphylococcus aureus; S. aureus MMX 100 ATCC 29213, MSSA (quality control)", "result": 0.06, "unit": "µg/mL"},
      {"measurement": "MIC", "setting": "Staphylococcus aureus; S. aureus MMX 1723, Mu50, VISA", "result": 0.5, "unit": "µg/mL"},
      {"measurement": "MIC", "setting": "Staphylococcus aureus; S. aureus MMX 2010, MRSA", "result": 0.06, "unit": "µg/mL"},
      {"measurement": "MIC", "setting": "Staphylococcus aureus; S. aureus MMX 2011 ATCC BAA-1756, MRSA", "result": 0.06, "unit": "µg/mL"},
      {"measurement": "MIC", "setting": "Staphylococcus aureus; S. aureus MMX 2124, VISA, DaptoNS", "result": 0.5, "unit": "µg/mL"},
      {"measurement": "MIC", "setting": "Staphylococcus aureus; S. aureus MMX 2490, MSSA", "result": 0.12, "unit": "µg/mL"},
      {"measurement": "MIC", "setting": "Staphylococcus aureus; S. aureus MMX 3982, MRSA", "result": 0.06, "unit": "µg/mL"},
      {"measurement": "MIC", "setting": "Staphylococcus aureus; S. aureus MMX 4658, VISA", "result": 0.12, "unit": "µg/mL"},
      {"measurement": "MIC", "setting": "Staphylococcus aureus; S. aureus MMX 4660, VISA", "result": 0.12, "unit": "µg/mL"},
      {"measurement": "MIC", "setting": "Staphylococcus aureus; S. aureus MMX 4665, hVISA", "result": 0.25, "unit": "µg/mL"},
      {"measurement": "MIC", "setting": "Staphylococcus aureus; S. aureus MMX 4675 ATCC BAA-1556, MRSA", "result": 0.06, "unit": "µg/mL"},
      {"measurement": "MIC", "setting": "Staphylococcus aureus; S. aureus MMX 5717 ATCC 33591, MRSA", "result": 0.06, "unit": "µg/mL"},
      {"measurement": "MIC", "setting": "Staphylococcus aureus; S. aureus MMX 5985, MRSA", "result": 0.06, "unit": "µg/mL"},
      {"measurement": "MIC", "setting": "Staphylococcus aureus; S. aureus MMX 5989, Mu3, hVISA", "result": 0.12, "unit": "µg/mL"},
      {"measurement": "MIC", "setting": "Staphylococcus aureus; S. aureus MMX 5999, MRSA", "result": 0.06, "unit": "µg/mL"},
      {"measurement": "MIC", "setting": "Staphylococcus aureus; S. aureus MMX 7899, MRSA", "result": 0.06, "unit": "µg/mL"},
      {"measurement": "MIC", "setting": "Staphylococcus aureus; S. aureus MMX 7900, MRSA", "result": 0.06, "unit": "µg/mL"},
      {"measurement": "MIC", "setting": "Staphylococcus aureus; S. aureus MMX 7901, MRSA", "result": 0.03, "unit": "µg/mL"},
      {"measurement": "MIC", "setting": "Staphylococcus aureus; S. aureus MMX 7902, MRSA", "result": 0.06, "unit": "µg/mL"},
      {"measurement": "MIC", "setting": "Staphylococcus aureus; S. aureus MMX 7903, MRSA", "result": 0.06, "unit": "µg/mL"},
      {"measurement": "MIC", "setting": "Staphylococcus aureus; S. aureus MMX 7907, MSSA", "result": 0.06, "unit": "µg/mL"},
      {"measurement": "MIC", "setting": "Staphylococcus aureus; S. aureus MMX 7908, MSSA", "result": 0.12, "unit": "µg/mL"},
      {"measurement": "MIC", "setting": "S. lugdenensis (CoNS)", "result": 0.06, "unit": "µg/mL"},
      {"measurement": "MIC", "setting": "P. micros", "result": 0.06, "unit": "µg/mL"},
      {"measurement": "MIC", "setting": "S. epidermidis (CoNS); S. epidermidis (CoNS) MMX 762, MRSE", "result": 0.12, "unit": "µg/mL"},
      {"measurement": "MIC", "setting": "S. epidermidis (CoNS); S. epidermidis (CoNS) MMX 5145, MRSE", "result": 0.03, "unit": "µg/mL"},
      {"measurement": "MIC", "setting": "Enterococci; E. faecalis MMX 101 ATCC 29212, VSE", "result": 0.12, "unit": "µg/mL"},
      {"measurement": "MIC", "setting": "Enterococci; E. faecalis MMX 1086, VanA VRE", "result": 1, "unit": "µg/mL"},
      {"measurement": "MIC", "setting": "Enterococci; E. faecalis MMX 4176", "result": 0.25, "unit": "µg/mL"},
      {"measurement": "MIC", "setting": "Enterococci; E. faecium MMX 173, VanB VRE", "result": 0.06, "unit": "µg/mL"},
      {"measurement": "MIC", "setting": "Enterococci; E. faecium MMX 851, VanA VRE", "result": 2, "unit": "µg/mL"},
      {"measurement": "MIC", "setting": "Enterococci; E. faecium MMX 4204", "result": 0.06, "unit": "µg/mL"},
      {"measurement": "activity against vancomycin-resistant enterococci (VRE)", "setting": "Enterococci; VRE, MIC values elevated relative to vancomycin-susceptible enterococci (VSE)", "result": "potent activity"},
      {"measurement": "MIC", "setting": "C. perfringens", "result": 0.015, "unit": "µg/mL"}
    ]}
  ]
}
